Assay results from PubChem BioAssay AID1259407 (Chemical Carcinogenesis Research Information System (CCRIS), 2018).
The source made the active and inactive calls. The rule behind the calls is not given here.

Test system: CCRIS mutagenicity, Ames/micronucleus/aberration tests
Assay: CCRIS mutagenicity studies

Question: Which results are given for Nc1ccn([C@@H]2C=C(CO)[C@@H](O)[C@H]2O)c(=O)n1?
Answer: mutagenic call (Test System: AMES SALMONELLA TYPHIMURIUM, Strain/Indicator: TA98, Metabolic Activation: HAMSTER, LIVER, S-9, AROCLOR 1254 (10%), Method: STANDARD PLATE): inactive; negative; mutagenic call (Test System: AMES SALMONELLA TYPHIMURIUM, Strain/Indicator: TA98, Metabolic Activation: NONE, Method: STANDARD PLATE): inactive; negative; mutagenic call (Test System: AMES SALMONELLA TYPHIMURIUM, Strain/Indicator: TA98, Metabolic Activation: RAT, LIVER, S-9, AROCLOR 1254 (10%), Method: STANDARD PLATE): inactive; negative; mutagenic call (Test System: AMES SALMONELLA TYPHIMURIUM, Strain/Indicator: TA100, Metabolic Activation: HAMSTER, LIVER, S-9, AROCLOR 1254 (10%), Method: STANDARD PLATE): inactive; negative; mutagenic call (Test System: AMES SALMONELLA TYPHIMURIUM, Strain/Indicator: TA100, Metabolic Activation: NONE, Method: STANDARD PLATE): inactive; negative; mutagenic call (Test System: AMES SALMONELLA TYPHIMURIUM, Strain/Indicator: TA100, Metabolic Activation: RAT, LIVER, S-9, AROCLOR 1254 (10%), Method: STANDARD PLATE): inactive; negative; mutagenic call (Test System: AMES SALMONELLA TYPHIMURIUM, Strain/Indicator: TA1535, Metabolic Activation: HAMSTER, LIVER, S-9, AROCLOR 1254 (10%), Method: STANDARD PLATE): inactive; negative; mutagenic call (Test System: AMES SALMONELLA TYPHIMURIUM, Strain/Indicator: TA1535, Metabolic Activation: NONE, Method: STANDARD PLATE): inactive; negative; mutagenic call (Test System: AMES SALMONELLA TYPHIMURIUM, Strain/Indicator: TA1535, Metabolic Activation: RAT, LIVER, S-9, AROCLOR 1254 (10%), Method: STANDARD PLATE): inactive; negative; mutagenic call (Test System: AMES SALMONELLA TYPHIMURIUM, Strain/Indicator: TA1537, Metabolic Activation: HAMSTER, LIVER, S-9, AROCLOR 1254 (10%), Method: STANDARD PLATE): inactive; negative; mutagenic call (Test System: AMES SALMONELLA TYPHIMURIUM, Strain/Indicator: TA1537, Metabolic Activation: NONE, Method: STANDARD PLATE): inactive; negative; mutagenic call (Test System: AMES SALMONELLA TYPHIMURIUM, Strain/Indicator: TA1537, Metabolic Activation: RAT, LIVER, S-9, AROCLOR 1254 (10%), Method: STANDARD PLATE): inactive; negative; mutagenic call (Test System: AMES SALMONELLA TYPHIMURIUM, Strain/Indicator: TA1538, Metabolic Activation: HAMSTER, LIVER, S-9, AROCLOR 1254 (10%), Method: STANDARD PLATE): inactive; negative; mutagenic call (Test System: AMES SALMONELLA TYPHIMURIUM, Strain/Indicator: TA1538, Metabolic Activation: NONE, Method: STANDARD PLATE): inactive; negative; mutagenic call (Test System: AMES SALMONELLA TYPHIMURIUM, Strain/Indicator: TA1538, Metabolic Activation: RAT, LIVER, S-9, AROCLOR 1254 (10%), Method: STANDARD PLATE): inactive; negative; mutagenic call (Test System: MOUSE LYMPHOMA, Strain/Indicator: L5178Y (TK+/TK-), Metabolic Activation: RAT, LIVER, S-9, AROCLOR 1254, Method: SUSPENSION/PLATE): active; positive. reevaluation of results: positive; mutagenic call (Test System: Mouse lymphoma, Strain/Indicator: L5178Y (tk+/tk-), Metabolic Activation: None, Method: Suspension/plate): active; positive

Question: With Clc1cccc(C(Cl)(Cl)Cl)n1 as the compound, how does the mutagenic call (Test System: AMES SALMONELLA TYPHIMURIUM, Strain/Indicator: TA97, Metabolic Activation: HAMSTER, LIVER, S-9, AROCLOR 1254 (10%), Method: PREINCUBATION) read?
Answer: Its mutagenic call is “inactive; negative”.

Question: And the mutagenic call (Test System: AMES SALMONELLA TYPHIMURIUM, Strain/Indicator: TA97, Metabolic Activation: NONE, Method: PREINCUBATION)?
Answer: The mutagenic call was “inactive; negative”.

Question: And the mutagenic call (Test System: AMES SALMONELLA TYPHIMURIUM, Strain/Indicator: TA97, Metabolic Activation: RAT, LIVER, S-9, AROCLOR 1254 (10%), Method: PREINCUBATION)?
Answer: Its mutagenic call is “inactive; negative”.

Question: What about the mutagenic call (Test System: AMES SALMONELLA TYPHIMURIUM, Strain/Indicator: TA98, Metabolic Activation: HAMSTER, LIVER, S-9, AROCLOR 1254 (5%), Method: PREINCUBATION) of the same compound?
Answer: Its mutagenic call is “inactive; negative”.

Question: And the mutagenic call (Test System: AMES SALMONELLA TYPHIMURIUM, Strain/Indicator: TA98, Metabolic Activation: HAMSTER, LIVER, S-9, AROCLOR 1254 (10%), Method: PREINCUBATION)?
Answer: The mutagenic call was “active; positive”.

Question: What about the mutagenic call (Test System: AMES SALMONELLA TYPHIMURIUM, Strain/Indicator: TA98, Metabolic Activation: HAMSTER, LIVER, S-9, AROCLOR 1254 (30%), Method: PREINCUBATION) of the same compound?
Answer: Its mutagenic call is “active; positive”.

Question: And the mutagenic call (Test System: AMES SALMONELLA TYPHIMURIUM, Strain/Indicator: TA98, Metabolic Activation: NONE, Method: PREINCUBATION)?
Answer: The mutagenic call was “inactive; negative”.

Question: What about the mutagenic call (Test System: AMES SALMONELLA TYPHIMURIUM, Strain/Indicator: TA98, Metabolic Activation: RAT, LIVER, S-9, AROCLOR 1254 (5%), Method: PREINCUBATION) of the same compound?
Answer: The mutagenic call was “inactive; negative”.

Question: What about the mutagenic call (Test System: AMES SALMONELLA TYPHIMURIUM, Strain/Indicator: TA98, Metabolic Activation: RAT, LIVER, S-9, AROCLOR 1254 (10%), Method: PREINCUBATION) of the same compound?
Answer: The mutagenic call was “active; positive”.

Question: What about the mutagenic call (Test System: AMES SALMONELLA TYPHIMURIUM, Strain/Indicator: TA98, Metabolic Activation: RAT, LIVER, S-9, AROCLOR 1254 (30%), Method: PREINCUBATION) of the same compound?
Answer: Its mutagenic call is “active; positive”.

Question: And the mutagenic call (Test System: AMES SALMONELLA TYPHIMURIUM, Strain/Indicator: TA100, Metabolic Activation: HAMSTER, LIVER, S-9, AROCLOR 1254 (5 OR 10%), Method: PREINCUBATION)?
Answer: The mutagenic call was “inactive; negative”.

Question: And the mutagenic call (Test System: AMES SALMONELLA TYPHIMURIUM, Strain/Indicator: TA100, Metabolic Activation: HAMSTER, LIVER, S-9, AROCLOR 1254 (30%), Method: PREINCUBATION)?
Answer: The mutagenic call was “active; positive”.

Question: What about the mutagenic call (Test System: AMES SALMONELLA TYPHIMURIUM, Strain/Indicator: TA100, Metabolic Activation: NONE, Method: PREINCUBATION) of the same compound?
Answer: The mutagenic call was “inactive; negative”.

Question: And the mutagenic call (Test System: AMES SALMONELLA TYPHIMURIUM, Strain/Indicator: TA100, Metabolic Activation: RAT, LIVER, S-9, AROCLOR 1254 (5 OR 10%), Method: PREINCUBATION)?
Answer: Its mutagenic call is “inactive; negative”.

Question: What about the mutagenic call (Test System: AMES SALMONELLA TYPHIMURIUM, Strain/Indicator: TA100, Metabolic Activation: RAT, LIVER, S-9, AROCLOR 1254 (30%), Method: PREINCUBATION) of the same compound?
Answer: The mutagenic call was “inactive; negative”.

Question: What about the mutagenic call (Test System: AMES SALMONELLA TYPHIMURIUM, Strain/Indicator: TA1535, Metabolic Activation: HAMSTER, LIVER, S-9, AROCLOR 1254 (10%), Method: PREINCUBATION) of the same compound?
Answer: Its mutagenic call is “inactive; negative”.

Question: What about the mutagenic call (Test System: AMES SALMONELLA TYPHIMURIUM, Strain/Indicator: TA1535, Metabolic Activation: NONE, Method: PREINCUBATION) of the same compound?
Answer: Its mutagenic call is “inactive; negative”.

Question: What about the mutagenic call (Test System: AMES SALMONELLA TYPHIMURIUM, Strain/Indicator: TA1535, Metabolic Activation: RAT, LIVER, S-9, AROCLOR 1254 (10%), Method: PREINCUBATION) of the same compound?
Answer: Its mutagenic call is “inactive; negative”.

Question: OCc1ccnc2ccccc12 was tested. Which mutagenic call (Test System: AMES SALMONELLA TYPHIMURIUM, Strain/Indicator: TA100, Metabolic Activation: RAT, LIVER, S-9, Method: PREINCUBATION) did it give?
Answer: Its mutagenic call is “inactive; negative”.
